Laboratory results: PMC8466554, “Heteroaryl-Ethylenes as New Lead Compounds in the Fight against High Priority Bacterial Strains” (Antibiotics, 2021)
Where “and” joins values, the source holds several entries; their conditions need not be identical. Identical values can stand only once. Like-named read-outs stand apart in the source and are kept apart here.

How the values were obtained:
S.aureus USA300-CAMRSA = test: MIC and MBC microtiter plate assay; format: cell-based, Staphylococcus aureus
[1] = test system: Gram-positive control strains; test: MIC and MBC, summary over Gram-positive control strains; format: cell-based, S. aureus and Enterococcus spp.
[2] = test system: Gram-positive and Gram-negative ATCC strains; test: MIC and MBC, summary over Gram-positive and Gram-negative strains; format: cell-based; details: bactericidal effect defined as MBC/MIC ≤ 4
CaCo-2 cells = test: MTT cytotoxicity assay; format: cell-based, human; details: 24 h of incubation relative to untreated controls
Experimental: To evaluate the biological activity of the PBn series, compounds were screened for toxicity against the colon-rectal cancer cell line CaCo-2 (ATCC HTB-37). These human cancer cells were treated with solutions of the compounds at decreasing concentrations, starting from 100 μM up to 0.01 μM. The reference compound used for these assays was 5-Fluorouracil (5-Fu), a pyrimidine analogue belonging to the family of antimetabolite. […] Briefly, human colorectal adenocarcinoma cells (CaCo-2 HTB-37^TM Colorectal Adenocarcinoma Human, American Type Culture Collection, Manassas, VA, USA) were grown in Dulbecco’s MEM (DMEM) with 10% heat-inactivated fetal bovine serum, 2 mM L-Alanyl-L-Glutamine, penicillin-streptomycin (50 units-50 μg for mL) and incubated at 37 °C in a humidified atmosphere of 5% CO2, 95% air. CaCo-2 cells were plated in 96 well pates and incubated at 37 °C. The PBn series compounds and 5-FU were prepared as a 1 mM solution in 10 mL with 0.01% DMSO. Then, 24 h after plating, cells were treated with 20 μL of each solution. Untreated cells were used as controls. […] The results were read on a multiwell scanning spectrophotometer (AF2200 plate reader, Eppendorf, Milan, Italy), using a wavelength of 569 nm.

S.aureus Mu50-VISA = test: MIC and MBC microtiter plate assay; format: cell-based, Staphylococcus aureus
S.aureus ATCC29213-MSSA = test: MIC and MBC microtiter plate assay; format: cell-based, Staphylococcus aureus
[3] = test system: K. pneumoniae ATCC BAA-2814; test: MIC microtiter plate assay; format: cell-based, Klebsiella pneumoniae; details: K. pneumoniae ATCC BAA-2814 (MDR strain)
E. coli ATCC25922 = test: MIC and MBC microtiter plate assay, also with different inocula; format: cell-based, Escherichia coli
S.aureus ATCC12598-MSSA = test: as above; format: cell-based, Staphylococcus aureus
[4] = test system: E. faecalis ATCC51299-VRE; test: as above; format: cell-based
A. baumannii ATCC17978 = test: as above; format: cell-based, Acinetobacter baumannii
[5] = test system: E. faecalis ATCC29212-VSE; test: MIC and MBC microtiter plate assay; format: cell-based
K. pneumoniae ATCC700603 = test: MIC microtiter plate assay; format: cell-based, Klebsiella pneumoniae
P. aeruginosa ATCC27853 = test: MIC microtiter plate assay; format: cell-based, Pseudomonas aeruginosa
[6] = S.aureus ATCC12598-MSSA, value in brackets
[7] = E. faecalis ATCC51299-VRE, value in brackets
[8] = A. baumannii ATCC17978, value in brackets

MIC (S.aureus USA300-CAMRSA): 0.25 µg/mL
MIC (S.aureus USA300-CAMRSA; value in brackets): 0.49 µM
comparison between MIC and MBC values ([1]; Gram-positive control strains): three values of difference
MIC ([1]; over the Gram-positive control strains (S. aureus and Enterococcus spp.)): ≤ 16 µg/mL
MIC (S.aureus Mu50-VISA): 0.25 µg/mL
MIC (S.aureus Mu50-VISA; value in brackets): 0.49 µM
MIC (S.aureus ATCC29213-MSSA): 0.25 µg/mL
MIC (S.aureus ATCC29213-MSSA; value in brackets): 0.49 µM
MIC [3]: 64 µg/mL
MIC ([3]; value in brackets): 125.14 µM
MIC (E. coli ATCC25922): 1 mg/L
MIC (E. coli ATCC25922; inoculum 1.00101 (1 × 10^1 CFU/mL)): 0.5 mg/L and 0.98 μM
MIC (E. coli ATCC25922; inoculum 1.00102 (1 × 10^2 CFU/mL)): 0.5 mg/L and 0.98 μM
MIC (E. coli ATCC25922; inoculum 1.00103 (1 × 10^3 CFU/mL)): 0.5 mg/L and 0.98 μM
MIC (E. coli ATCC25922; inoculum 1.00104 (1 × 10^4 CFU/mL)): 0.5 mg/L and 0.98 μM
MIC (E. coli ATCC25922; inoculum 1.00105 (1 × 10^5 CFU/mL)): 1 mg/L and 1.96 μM
MIC (E. coli ATCC25922; inoculum 1.00106 (1 × 10^6 CFU/mL)): 1 mg/L and 1.96 μM
MIC (E. coli ATCC25922; inoculum 1.00107 (1 × 10^7 CFU/mL)): 2 mg/L and 3.91 μM
MIC (E. coli ATCC25922; value in brackets): 1.96 µM
MIC (S.aureus ATCC12598-MSSA; S. aureus ATCC12598, inoculum 1.00101 (1 × 10^1 CFU/mL)): < 0.015 mg/L and < 0.03 μM
MIC (S.aureus ATCC12598-MSSA; S. aureus ATCC12598, inoculum 1.00102 (1 × 10^2 CFU/mL)): < 0.015 mg/L and < 0.03 μM
MIC (S.aureus ATCC12598-MSSA; S. aureus ATCC12598, inoculum 1.00103 (1 × 10^3 CFU/mL)): < 0.03 μM and < 0.015 mg/L
MIC (S.aureus ATCC12598-MSSA; S. aureus ATCC12598, inoculum 1.00104 (1 × 10^4 CFU/mL)): 0.03 mg/L and 0.06 μM
MIC (S.aureus ATCC12598-MSSA; S. aureus ATCC12598, inoculum 1.00105 (1 × 10^5 CFU/mL, standard)): 0.25 mg/L and 0.49 μM
MIC (S.aureus ATCC12598-MSSA; S. aureus ATCC12598, inoculum 1.00106 (1 × 10^6 CFU/mL)): 0.25 mg/L and 0.49 μM
MIC (S.aureus ATCC12598-MSSA; S. aureus ATCC12598, inoculum 1.00107 (1 × 10^7 CFU/mL)): 4 mg/L and 7.82 μM
MIC (S.aureus ATCC12598-MSSA; S.aureus ATCC12598-MSSA): 0.25 mg/L
MIC (S.aureus ATCC12598-MSSA; [6]): 0.49 µM
MIC ([4]; E. faecalis ATCC51299-VRE): 0.5 mg/L
MIC [4, 7]: 0.98 µM
MIC ([4]; E. faecalis ATCC51299, inoculum 1.00101 (1 × 10^1 CFU/mL)): 0.06 mg/L and 0.12 μM
MIC ([4]; E. faecalis ATCC51299, inoculum 1.00102 (1 × 10^2 CFU/mL)): 0.25 mg/L
MIC ([4]; E. faecalis ATCC51299, inoculum 1.00103 (1 × 10^3 CFU/mL)): 0.12 mg/L
MIC ([4]; E. faecalis ATCC51299, inoculum 1.00104 (1 × 10^4 CFU/mL)): 0.12 mg/L and 0.24 μM
MIC ([4]; E. faecalis ATCC51299, inoculum 1.00105 (1 × 10^5 CFU/mL, standard)): 0.5 mg/L and 0.98 μM
MIC ([4]; E. faecalis ATCC51299, inoculum 1.00106 (1 × 10^6 CFU/mL)): 0.5 mg/L and 0.98 μM
MIC ([4]; E. faecalis ATCC51299, inoculum 1.00107 (1 × 10^7 CFU/mL)): 0.5 mg/L and 0.98 μM
MIC (A. baumannii ATCC17978; A. baumannii ATCC17978): 0.25 mg/L
MIC (A. baumannii ATCC17978; A. baumannii ATCC 17978, inoculum 1.00101 (1 × 10^1 CFU/mL)): < 0.25 mg/L and < 0.49 μM
MIC (A. baumannii ATCC17978; A. baumannii ATCC 17978, inoculum 1.00102 (1 × 10^2 CFU/mL)): < 0.25 mg/L and < 0.49 μM
MIC (A. baumannii ATCC17978; A. baumannii ATCC 17978, inoculum 1.00103 (1 × 10^3 CFU/mL)): < 0.49 μM and < 0.25 mg/L
MIC (A. baumannii ATCC17978; A. baumannii ATCC 17978, inoculum 1.00104 (1 × 10^4 CFU/mL)): 0.25 mg/L and 0.49 μM
MIC (A. baumannii ATCC17978; A. baumannii ATCC 17978, inoculum 1.00105 (1 × 10^5 CFU/mL)): 0.25 mg/L and 0.49 μM
MIC (A. baumannii ATCC17978; A. baumannii ATCC 17978, inoculum 1.00106 (1 × 10^6 CFU/mL)): 0.49 µM
MIC (A. baumannii ATCC17978; A. baumannii ATCC 17978, inoculum 1.00107 (1 × 10^7 CFU/mL)): 1 mg/L and 1.96 μM
MIC (A. baumannii ATCC17978; [8]): 0.49 µM
MIC [5]: 0.5 µg/mL
MIC ([5]; value in brackets): 0.98 µM
MIC (K. pneumoniae ATCC700603): > 128 µg/mL
MIC (K. pneumoniae ATCC700603; value in brackets): > 250.27 µM
MIC (P. aeruginosa ATCC27853): 64 µg/mL
MIC (P. aeruginosa ATCC27853; value in brackets): 125.14 µM
SMILES: CN(C)c1ccc(/C=C/c2cccc(/C=C/c3ccc(N(C)C)cc3)[n+]2C)cc1.[I-] [PB4]
MBC (S.aureus USA300-CAMRSA): 2 µg/mL
MBC (S.aureus USA300-CAMRSA; value in brackets): 3.91 µM
MBC/MIC [2]: ≤ 4
IC50 (CaCo-2 cells): 319 nM and 320 nM
MBC (S.aureus Mu50-VISA): 2 µg/mL
MBC (S.aureus Mu50-VISA; value in brackets): 3.91 µM
MBC (S.aureus ATCC29213-MSSA): 2 µg/mL
MBC (S.aureus ATCC29213-MSSA; value in brackets): 3.91 µM
MBC (E. coli ATCC25922): 4 µg/mL
MBC (E. coli ATCC25922; value in brackets): 7.82 µM
MBC (S.aureus ATCC12598-MSSA; S.aureus ATCC12598-MSSA): 2 µg/mL
MBC (S.aureus ATCC12598-MSSA; [6]): 3.91 µM
MBC ([4]; E. faecalis ATCC51299-VRE): 4 µg/mL
MBC [4, 7]: 7.82 µM
MBC (A. baumannii ATCC17978; A. baumannii ATCC17978): 0.5 µg/mL
MBC (A. baumannii ATCC17978; [8]): 0.98 µM
MBC [5]: 4 µg/mL
MBC ([5]; value in brackets): 7.82 µM
